Active and inactive are the calls of the source. No rule for the calls is given here.
Tested on: CCRIS mutagenicity, Ames/micronucleus/aberration tests
Assay: CCRIS mutagenicity studies
[1] = Test System: AMES SALMONELLA TYPHIMURIUM, Strain/Indicator: TA98, Metabolic Activation: NONE, Method: STANDARD PLATE
[2] = Test System: AMES SALMONELLA TYPHIMURIUM, Strain/Indicator: TA100, Metabolic Activation: NONE, Method: STANDARD PLATE
[3] = Test System: AMES SALMONELLA TYPHIMURIUM, Strain/Indicator: TA98, Metabolic Activation: RAT, LIVER, S-9, AROCLOR 1254, Method: STANDARD PLATE
[4] = Test System: AMES SALMONELLA TYPHIMURIUM, Strain/Indicator: TA100, Metabolic Activation: RAT, LIVER, S-9, AROCLOR 1254, Method: STANDARD PLATE
[5] = Test System: AMES SALMONELLA TYPHIMURIUM, Strain/Indicator: TA1538, Metabolic Activation: NONE, Method: STANDARD PLATE
[6] = Test System: AMES SALMONELLA TYPHIMURIUM, Strain/Indicator: TA1538, Metabolic Activation: RAT, LIVER, S-9, AROCLOR 1254, Method: STANDARD PLATE
[7] = Test System: AMES SALMONELLA TYPHIMURIUM, Strain/Indicator: TA98, Metabolic Activation: NONE, Method: PREINCUBATION
[8] = Test System: AMES SALMONELLA TYPHIMURIUM, Strain/Indicator: TA100, Metabolic Activation: NONE, Method: PREINCUBATION

## c1ccc2nc3c(cc2c1)-c1cccc2cccc-3c12
[1]
  mutagenic call: inactive; negative
Test System: AMES SALMONELLA TYPHIMURIUM, Strain/Indicator: TA98, Metabolic Activation: RAT, LIVER, S-9, Method: STANDARD PLATE
  mutagenic call: inactive; negative
[2]
  mutagenic call: inactive; negative
Test System: AMES SALMONELLA TYPHIMURIUM, Strain/Indicator: TA100, Metabolic Activation: RAT, LIVER, S-9, Method: STANDARD PLATE
  mutagenic call: inactive; negative

## c1ccc([C@H]2O[C@H]2c2ccccc2)cc1
Test System: UDS RAT HEPATOCYTES, Strain/Indicator: THY INCORP, Metabolic Activation: NONE
  mutagenic call: inactive; negative

## COc1cc(OC)c2nc3occc3c(OC)c2c1
Test System: AMES SALMONELLA TYPHIMURIUM, Strain/Indicator: TA98, Metabolic Activation: RAT, LIVER, S-9, PHENOBARBITAL, Method: STANDARD PLATE
  mutagenic call: active; positive
Test System: AMES SALMONELLA TYPHIMURIUM, Strain/Indicator: TA100, Metabolic Activation: RAT, LIVER, S-9, PHENOBARBITAL, Method: STANDARD PLATE
  mutagenic call: active; positive

## CN(C)c1ccc([C@H]2C[C@@]3(C)[C@@H](CC[C@@]3(O)/C=C\CO)[C@@H]3CCC4=CC(=O)CCC4=C32)cc1
End Point: IN VITRO CHROMOSOMAL ABERRATIONS, Test System: HUMAN PERIPHERAL LYMPHOCYTES, Metabolic Activation: NONE
  mutagenic call: inactive; negative
End Point: IN VITRO CHROMOSOMAL ABERRATIONS, Test System: HUMAN PERIPHERAL LYMPHOCYTES, Metabolic Activation: RAT, LIVER, S-9, AROCLOR 1254
  mutagenic call: inactive; negative
[1]
  mutagenic call: inactive; negative
[3]
  mutagenic call: inactive; negative
[2]
  mutagenic call: inactive; negative
[4]
  mutagenic call: inactive; negative
Test System: AMES SALMONELLA TYPHIMURIUM, Strain/Indicator: TA1535, Metabolic Activation: NONE, Method: STANDARD PLATE
  mutagenic call: inactive; negative
Test System: AMES SALMONELLA TYPHIMURIUM, Strain/Indicator: TA1535, Metabolic Activation: RAT, LIVER, S-9, AROCLOR 1254, Method: STANDARD PLATE
  mutagenic call: inactive; negative
Test System: AMES SALMONELLA TYPHIMURIUM, Strain/Indicator: TA1537, Metabolic Activation: NONE, Method: STANDARD PLATE
  mutagenic call: inactive; negative
Test System: AMES SALMONELLA TYPHIMURIUM, Strain/Indicator: TA1537, Metabolic Activation: RAT, LIVER, S-9, AROCLOR 1254, Method: STANDARD PLATE
  mutagenic call: inactive; negative
[5]
  mutagenic call: inactive; negative
[6]
  mutagenic call: inactive; negative

## O=C1CCC(=O)N1c1ccc(Cl)cc1
[1]
  mutagenic call: inactive; negative
[3]
  mutagenic call: inactive; negative
[2]
  mutagenic call: inactive; negative
[4]
  mutagenic call: inactive; negative

## Cc1ccccc1N=Nc1ccc(N)c(C)c1N
Test System: AMES SALMONELLA TYPHIMURIUM, Strain/Indicator: TA100, Metabolic Activation: HUMAN, LIVER, S-9, Method: PREINCUBATION
  mutagenic call: active; positive
Test System: AMES SALMONELLA TYPHIMURIUM, Strain/Indicator: TA100, Metabolic Activation: RAT, LIVER, S-9, BETA-NAPHTHOFLAVONE, Method: PREINCUBATION
  mutagenic call: active; positive
Test System: AMES SALMONELLA TYPHIMURIUM, Strain/Indicator: TA100, Metabolic Activation: RAT, LIVER, S-9, PHENOBARBITAL, Method: PREINCUBATION
  mutagenic call: active; positive
Test System: AMES SALMONELLA TYPHIMURIUM, Strain/Indicator: TA100, Metabolic Activation: RAT, LIVER, S-9, Method: PREINCUBATION
  mutagenic call: active; positive
Test System: UDS RODENT HEPATOCYTES, Strain/Indicator: THY INCORP, Metabolic Activation: NONE, Method: AUTORADIOGRAPHY
  mutagenic call: active; positive

## CC(C)COC(=O)Cc1ccccc1
Test System: AMES SALMONELLA TYPHIMURIUM, Strain/Indicator: TA97, Metabolic Activation: NONE, Method: PREINCUBATION
  mutagenic call: inactive; negative
Test System: AMES SALMONELLA TYPHIMURIUM, Strain/Indicator: TA97, Metabolic Activation: RAT, LIVER, S-9, AROCLOR 1254, Method: PREINCUBATION
  mutagenic call: inactive; negative
Test System: AMES SALMONELLA TYPHIMURIUM, Strain/Indicator: TA102, Metabolic Activation: NONE, Method: PREINCUBATION
  mutagenic call: inactive; negative
Test System: AMES SALMONELLA TYPHIMURIUM, Strain/Indicator: TA102, Metabolic Activation: RAT, LIVER, S-9, AROCLOR 1254, Method: PREINCUBATION
  mutagenic call: inactive; negative

## Nc1ccc(Oc2ccccc2)cc1
[7]
  mutagenic call: inactive; negative
Test System: AMES SALMONELLA TYPHIMURIUM, Strain/Indicator: TA98, Metabolic Activation: RAT, BLADDER, S-9, PCB, Method: FLUCTUATION TEST
  mutagenic call: active; positive
Test System: AMES SALMONELLA TYPHIMURIUM, Strain/Indicator: TA98, Metabolic Activation: RAT, LIVER, S-9, PCB, Method: PREINCUBATION
  mutagenic call: active; positive
Test System: AMES SALMONELLA TYPHIMURIUM, Strain/Indicator: TA100, Metabolic Activation: GUINEA PIG, LIVER, S-9, KANECLOR 500, Method: STANDARD PLATE
  mutagenic call: active; positive
[8]
  mutagenic call: inactive; negative
Test System: AMES SALMONELLA TYPHIMURIUM, Strain/Indicator: TA100, Metabolic Activation: RAT, BLADDER, S-9, PCB, Method: FLUCTUATION TEST
  mutagenic call: active; positive
Test System: AMES SALMONELLA TYPHIMURIUM, Strain/Indicator: TA100, Metabolic Activation: RAT, LIVER, S-9, PCB, Method: PREINCUBATION
  mutagenic call: active; positive

## N#C[Se]Cc1ccccc1
Test System: AMES SALMONELLA TYPHIMURIUM, Strain/Indicator: TA97A, Metabolic Activation: NONE, Method: STANDARD PLATE
  mutagenic call: inactive; negative
[2]
  mutagenic call: active; positive

## CCN(CC)c1ccc(N=Nc2ccc(N=Nc3c(S(=O)(=O)O)cc4ccc(N)cc4c3O)c(OC)c2)cc1
[1]
  mutagenic call: inactive; negative
[3]
  mutagenic call: active; positive
[2]
  mutagenic call: inactive; negative
[4]
  mutagenic call: inactive; negative
[5]
  mutagenic call: inactive; negative
[6]
  mutagenic call: active; positive

## NC(=O)CCCCC(N)=O
Test System: AMES SALMONELLA TYPHIMURIUM, Strain/Indicator: TA98, Metabolic Activation: HAMSTER, LIVER, S-9, AROCLOR 1254, Method: PREINCUBATION
  mutagenic call: inactive; negative
[7]
  mutagenic call: inactive; negative
Test System: AMES SALMONELLA TYPHIMURIUM, Strain/Indicator: TA98, Metabolic Activation: RAT, LIVER, S-9, AROCLOR 1254, Method: PREINCUBATION
  mutagenic call: inactive; negative
Test System: AMES SALMONELLA TYPHIMURIUM, Strain/Indicator: TA100, Metabolic Activation: HAMSTER, LIVER, S-9, AROCLOR 1254, Method: PREINCUBATION
  mutagenic call: inactive; negative
[8]
  mutagenic call: inactive; negative
Test System: AMES SALMONELLA TYPHIMURIUM, Strain/Indicator: TA100, Metabolic Activation: RAT, LIVER, S-9, AROCLOR 1254, Method: PREINCUBATION
  mutagenic call: inactive; negative
Test System: AMES SALMONELLA TYPHIMURIUM, Strain/Indicator: TA1535, Metabolic Activation: HAMSTER, LIVER, S-9, AROCLOR 1254, Method: PREINCUBATION
  mutagenic call: inactive; negative
Test System: AMES SALMONELLA TYPHIMURIUM, Strain/Indicator: TA1535, Metabolic Activation: NONE, Method: PREINCUBATION
  mutagenic call: inactive; negative
Test System: AMES SALMONELLA TYPHIMURIUM, Strain/Indicator: TA1535, Metabolic Activation: RAT, LIVER, S-9, AROCLOR 1254, Method: PREINCUBATION
  mutagenic call: inactive; negative
Test System: AMES SALMONELLA TYPHIMURIUM, Strain/Indicator: TA1537, Metabolic Activation: HAMSTER, LIVER, S-9, AROCLOR 1254, Method: PREINCUBATION
  mutagenic call: inactive; negative
Test System: AMES SALMONELLA TYPHIMURIUM, Strain/Indicator: TA1537, Metabolic Activation: NONE, Method: PREINCUBATION
  mutagenic call: inactive; negative
Test System: AMES SALMONELLA TYPHIMURIUM, Strain/Indicator: TA1537, Metabolic Activation: RAT, LIVER, S-9, AROCLOR 1254, Method: PREINCUBATION
  mutagenic call: inactive; negative

## Nc1cc(S(=O)(=O)O)cc2cc(S(=O)(=O)O)c(N=Nc3ccccc3)c(O)c12
[1]
  mutagenic call: inactive; negative
Test System: AMES SALMONELLA TYPHIMURIUM, Strain/Indicator: TA98, Metabolic Activation: RAT LIVER S-9, AROCLOR 1254, Method: STANDARD PLATE
  mutagenic call: inactive; negative
[2]
  mutagenic call: inactive; negative
Test System: AMES SALMONELLA TYPHIMURIUM, Strain/Indicator: TA100, Metabolic Activation: RAT LIVER S-9, AROCLOR 1254, Method: STANDARD PLATE
  mutagenic call: inactive; negative

From PubChem BioAssay AID1259407 (Chemical Carcinogenesis Research Information System (CCRIS), 2018)
